Measured values taken from publication PMC12117170.

Assay: Intramolecular Cu-catalysed sydnonimine-alkyne click-and-release (forms 1,4-disubstituted pyrazole, releases CO2 and pyrenylmethyl urea/isocyanate): CuSO4 0.2 eq, bathophenanthroline disulfonate 0.4 eq, Na ascorbate 3 eq, triethanolamine 2 eq, 16 h; rGO filtration and aqueous work-up
Conditions: DMSO/H2O 1:1, 35.0 mM, 37.0 °C

O=C1CCCCNC(=O)c2cccc(c2)-n2cc(cn2)CN1 [S2 -> CyP2]
ring closure, isolated yield (from C#CCNC(=O)CCCCNC(=O)c1cccc(-[n+]2cc([N-]C(=O)NCc3ccc4ccc5cccc6ccc3c4c56)on2)c1, 15-membered ring): 75%

O=C1CCCCCCCCCCNC(=O)c2cccc(c2)-n2cc(cn2)CN1 [S4 -> CyP4]
ring closure, isolated yield (from C#CCNC(=O)CCCCCCCCCCNC(=O)c1cccc(-[n+]2cc([N-]C(=O)NCc3ccc4ccc5cccc6ccc3c4c56)on2)c1, 21-membered ring): 65%

O=C1CNC(=O)[C@H](Cc2c[nH]c3ccccc23)NC(=O)c2cccc(c2)-n2cc(cn2)CN1 [3-(sydnonimine-pyrene)benzoyl-Trp-Gly-NH-propargyl]
ring closure, isolated yield (from C#CCNC(=O)CNC(=O)[C@H](Cc1c[nH]c2ccccc12)NC(=O)c1cccc(-[n+]2cc([N-]C(=O)NCc3ccc4ccc5cccc6ccc3c4c56)on2)c1, 15-membered ring): 75%

CC(C)C[C@@H]1NC(=O)[C@H](Cc2ccccc2)NC(=O)c2cccc(c2)-n2cc(cn2)CNC1=O [3-(sydnonimine-pyrene)benzoyl-Phe-Leu-NH-propargyl]
ring closure, isolated yield (from C#CCNC(=O)[C@H](CC(C)C)NC(=O)[C@H](Cc1ccccc1)NC(=O)c1cccc(-[n+]2cc([N-]C(=O)NCc3ccc4ccc5cccc6ccc3c4c56)on2)c1, 15-membered ring): 63%

CC(C)C[C@@H]1NC(=O)[C@@H]2CCCN2Cc2cnn(c2)-c2cccc(c2)C(=O)NCCNC(=O)CNC1=O
ring closure, isolated yield (from C#CCN1CCC[C@H]1C(=O)N[C@@H](CC(C)C)C(=O)NCC(=O)NCCNC(=O)c1cccc(-[n+]2cc([N-]C(=O)NCc3ccc4ccc5cccc6ccc3c4c56)on2)c1, 21-membered ring): 79%

O=C1CCCCCCCCCCNC(=O)c2cccc(c2)-n2cc(cn2)CNC(=O)CN1 [S5 -> CyP5]
ring closure, isolated yield (from C#CCNC(=O)CNC(=O)CCCCCCCCCCNC(=O)c1cccc(-[n+]2cc([N-]C(=O)NCc3ccc4ccc5cccc6ccc3c4c56)on2)c1, 24-membered ring): 68%

O=C1CCCCCCCCCCNC(=O)c2cccc(c2)-n2cc(cn2)CNC(=O)CCCCN1 [S6 -> CyP6]
ring closure, isolated yield (from C#CCNC(=O)CCCCNC(=O)CCCCCCCCCCNC(=O)c1cccc(-[n+]2cc([N-]C(=O)NCc3ccc4ccc5cccc6ccc3c4c56)on2)c1, 27-membered ring): 78%

O=C1CCCCCCCNC(=O)c2cccc(c2)-n2cc(cn2)CN1 [S3 -> CyP3]
ring closure, isolated yield (from C#CCNC(=O)CCCCCCCNC(=O)c1cccc(-[n+]2cc([N-]C(=O)NCc3ccc4ccc5cccc6ccc3c4c56)on2)c1, 18-membered ring): 85%

O=C1NCCOCCOCCOCc2cnn(c2)-c2cccc1c2 [S7 -> CyP7 (50 C)]
ring closure, isolated yield (from C#CCOCCOCCOCCNC(=O)c1cccc(-[n+]2cc([N-]C(=O)NCc3ccc4ccc5cccc6ccc3c4c56)on2)c1, 18-membered ring): 81%

COC(=O)[C@@H]1CCCCNC(=O)c2cccc(c2)-n2cc(cn2)CCCC(=O)N1 [hex-5-ynoyl-Lys(Nε-3-(sydnonimine-pyrene)benzoyl)-OMe]
ring closure, isolated yield (from C#CCCCC(=O)N[C@@H](CCCCNC(=O)c1cccc(-[n+]2cc([N-]C(=O)NCc3ccc4ccc5cccc6ccc3c4c56)on2)c1)C(=O)OC, 18-membered ring): 76%

C#CCNC(=O)CNC(=O)c1cccc(-[n+]2cc([N-]C(=O)NCc3ccc4ccc5cccc6ccc3c4c56)on2)c1 [S1 -> CyP1]
ring closure, isolated yield (the molecule shown is the open-chain precursor, 12-membered ring): 0%

CC(C)C[C@@H]1NC(=O)c2cccc(c2)-n2cc(cn2)CNC(=O)[C@H](C)NC1=O [3-(sydnonimine-pyrene)benzoyl-Leu-Ala-NH-propargyl]
ring closure, isolated yield (from C#CCNC(=O)[C@H](C)NC(=O)[C@H](CC(C)C)NC(=O)c1cccc(-[n+]2cc([N-]C(=O)NCc3ccc4ccc5cccc6ccc3c4c56)on2)c1, 15-membered ring): 68%

O=C1CCc2cnn(c2)-c2cccc(c2)C(=O)Nc2ccc(cc2)Oc2cccc(c2)Oc2ccc(cc2)N1 [S8 -> CyP8]
ring closure, isolated yield (from C#CCCC(=O)Nc1ccc(Oc2cccc(Oc3ccc(NC(=O)c4cccc(-[n+]5cc([N-]C(=O)NCc6ccc7ccc8cccc9ccc6c7c89)on5)c4)cc3)c2)cc1, 25-membered ring): 72%
